Measured values published in ChEMBL document CHEMBL1143697, “Lemnalosides A-D, decalin-type bicyclic diterpene glycosides from the marine soft coral Lemnalia sp” (2007).
Calls of active or inactive are those of the source. The rule behind the calls is not given here.

Tests used:
Streptomyces [1] = test: microbe, parasite or virus in culture; conditions: 85E, read-out: IZ
Description: Growth inhibition of Streptomyces 85E assessed as induction of bald phenotype effect at 5 ug/disk by hyphae formation inhibition assay

Streptomyces [2] = test: microbe, parasite or virus in culture; format: functional; conditions: 85E, read-out: IZ
Description: Growth inhibition of Streptomyces 85E at 20 ug/disk by hyphae formation inhibition assay

Streptomyces [3] = test: Growth inhibition of Streptomyces 85E at 10 ug/disk by hyphae formation inhibition assay; format: functional, organism-based
Streptomyces [4] = test: Growth inhibition of Streptomyces 85E by hyphae formation inhibition assay; format: functional, organism-based
Streptomyces [5] = test: Growth inhibition of Streptomyces 85E at 2.5 ug/disk by hyphae formation inhibition assay; format: functional, organism-based

N#CC(=C(/N)Sc1ccccc1N)/C(C#N)=C(\N)Sc1ccccc1N
zone of inhibition at 5 µg/disc (Streptomyces [1]): 15 mm | zone of inhibition at 20 µg/disc (Streptomyces [2]): 15 mm

CC(=O)OC[C@H]1O[C@@H](O[C@@]2(C)CC[C@@H]([C@H](C)CCC=C(C)C)[C@@H]3C=C(C)CC[C@@H]32)[C@H](O)[C@@H](O)[C@H]1O [LEMNALOSIDE A]
Activity (Streptomyces [3]): inactive | zone of inhibition at 20 µg/disc (Streptomyces [2]): 11 mm

CO[C@@]12[C@H](COC(N)=O)C3=C(C(=O)C(C)=C(N)C3=O)N1C[C@@H]1N[C@@H]12 [MITOMYCIN]
zone of inhibition at 20 µg/disc (Streptomyces [2]): 30 mm

C=C(C)C(CC[C@@H](C)[C@@H]1CC[C@](C)(O[C@@H]2O[C@H](COC(C)=O)[C@H](O)[C@H](O)[C@H]2O)[C@H]2CCC(C)=C[C@@H]12)OO (stereo not given in full)
Activity (Streptomyces [4]): inactive

CC(=O)O[C@H]1[C@@H](O)[C@@H](CO)O[C@@H](O[C@@]2(C)CC[C@@H]([C@H](C)CCC=C(C)C)[C@@H]3C=C(C)CC[C@@H]32)[C@@H]1O [LEMNALOSIDE B]
Activity (Streptomyces [5]): Active | zone of inhibition at 20 µg/disc (Streptomyces [2]): 18 mm

CC1=C[C@H]2[C@H]([C@H](C)CCC[C@@H](C)C3OC[C@H]4O[C@@H](O3)[C@H](O)[C@@H](O)[C@@H]4O)CC=C(C)[C@H]2CC1 (stereo not given in full) [LEMNABOURSIDE]
Activity (Streptomyces [3]): inactive | zone of inhibition at 20 µg/disc (Streptomyces [2]): 10 mm
